Results taken from patent publication US12077531B2, “Imidazopyridinone compound” (KISSEI PHARMACEUTICAL CO., LTD., priority 2018, dated 2024).
Structures can show the parent of a compound that is named as a salt.

Target: human PHD2184-418 (Homo sapiens (Human), UniProt Q9GZT9)
Assay: PHD2 inhibitory test (fluorescence polarization, binding between PHD2 and HIF-1α)
Settings: for IC50: human PHD2184-418, FITC-labeled HIF-1α556-574, 2 μM 2-oxoglutarate, 37° C. 60 minutes
Protocol: Test Example 1 PHD2 Inhibitory Test
(1) Expression and Preparation of Human PHD2184-418
Human PHD2184-418 containing amino acid residues 184 to 418 of the protein represented by CAC42509 (GenBank accession ID) was expressed and prepared by the following method.
An expression construct of human PHD2184-418 containing N-terminal histidine tag was introduced into pET-30a (+) vector, and the sequence was confirmed. This vector was introduced into BL21 (DE3) strain and cultured at 37° C. in LB medium containing antibiotics. After culturing, a cell lysis solution was added to the cells, and then the cells were disrupted by sonication. The disrupted suspension was centrifuged and the supernatant was purified by Ni column to give human PHD2184-418.
Human HIF-1α556-574 (FITC-labeled HIF-1α556-574), containing N-terminal FITC-Ahx, containing amino acid residues 556 to 574 (partial peptide) of HIF-1α was used as a substrate. Using FITC-labeled HIF-1α556-574, the competitive inhibition between 2-oxoglutarate and test compounds (PHD inhibitor) was evaluated based on the change in fluorescence polarization by the following method.
An enzyme (human PHD2184-418) and the substrate were diluted with an assay buffer (pH 7.4) containing 10 mM HEPES, 150 mM NaCl, 10 μM MnCl2-4H2O, 2 μM 2-oxoglutarate and 0.05% Tween-20. Test compounds were diluted with DMSO. Test compounds and human PHD2184-418 was added to the 384-well plate (Corning, black, opaque bottom) in advance. The reaction was started by the addition of FITC-labeled HIF-1α556-574. After incubating at 37° C. for 60 minutes, fluorescence polarization (excitation wavelength: 470 nm, fluorescence wavelength: 530 nm) was measured by PHERAstar FSX (BMG Labtech). Fluorescence polarization of each well was measured, and human PHD2 binding inhibitory activity of test compounds was calculated based on the value of test compound-free group.

Sequence of human PHD2184-418 (Q9GZT9 184-418): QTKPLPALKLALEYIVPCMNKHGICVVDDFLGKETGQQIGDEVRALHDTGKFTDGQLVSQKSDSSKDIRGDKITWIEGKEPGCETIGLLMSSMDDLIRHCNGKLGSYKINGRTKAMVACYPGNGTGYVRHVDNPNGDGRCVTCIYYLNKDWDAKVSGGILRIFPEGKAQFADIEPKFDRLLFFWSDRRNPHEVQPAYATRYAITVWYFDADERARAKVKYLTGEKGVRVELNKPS

| SMILES | IC50 [nM] | inhibition at 100 µM (read-out: inhibition rate at the compound concentration of 100 μM (numerals with *), compound concentration 100 μM) [%] |
| --- | --- | --- |
| Cn1c(C(=O)O)cnc1CN1CCC(C)(n2c(=O)n(-c3ccc(-c4ccccc4)cc3)c3cccnc32)CC1 [Example 23, 2-((4-(1-([1,1′-Biphenyl]-4-yl)-2-oxo-1,2-dihydro-3H-imidazo[4,5-b]pyridin-3-yl)-4-methylpiperidin-1-yl)methyl)-1-methyl-1H-imidazole-5-carboxylic acid] | 5500 | – |
| COc1cnc2c(c1)n(-c1ccc(-c3ccc(C(=O)O)cc3)cc1)c(=O)n2[C@H]1CCN(Cc2ncc(C(=O)O)n2C)C1 [Example 24, (S)-2-((3-(1-(4′-Carboxy-[1,1′-biphenyl]-4-yl)-6-methoxy-2-oxo-1,2-dihydro-3H-imidazo[4,5-b]pyridin-3-yl)pyrrolidin-1-yl)methyl)-1-methyl-1H-imidazole-5-carboxylic acid] | 110 | – |
| Cn1c(C(=O)O)cnc1CN1C[C@@H](F)[C@H](n2c(=O)n(-c3ccc(-c4ccc(C(=O)O)cc4)cc3)c3cccnc32)C1 [Example 25, 2-(((3R,4R)-3-(1-(4′-Carboxy-[1,1′-biphenyl]-4-yl)-2-oxo-1,2-dihydro-3H-imidazo[4,5-b]pyridin-3-yl)-4-fluoropyrrolidin-1-yl)methyl)-1-methyl-1H-imidazole-5-carboxylic acid] | 110 | – |
| Cn1c(C(=O)O)cnc1CN1CC[C@H](n2c(=O)n(-c3ccc(-c4ccc(C(=O)O)cc4)cc3)c3cc(C(F)(F)F)cnc32)C1 [Example 26, (S)-2-((3-(1-(4′-Carboxy-[1,1′-biphenyl]-4-yl)-2-oxo-6-(trifluoromethyl)-1,2-dihydro-3H-imidazo[4,5-b]pyridin-3-yl)pyrrolidin-1-yl)methyl)-1-methyl-1H-imidazole-5-carboxylic acid] | 130 | – |
| Cc1cnc2c(c1)n(-c1ccc(-c3ccc(C(=O)O)cc3)cc1)c(=O)n2[C@H]1CCN(Cc2ncc(C(=O)O)n2C)C1 [Example 27, (S)-2-((3-(1-(4′-Carboxy-[1,1′-biphenyl]-4-yl)-6-methyl-2-oxo-1,2-dihydro-3H-imidazo[4,5-b]pyridin-3-yl)pyrrolidin-1-yl)methyl)-1-methyl-1H-imidazole-5-carboxylic acid] | 110 | – |
| Cc1cc(-c2ccccc2)ccc1-n1c(=O)n([C@H]2CCN(Cc3nccn3C)C2)c2ncccc21 [Example 28, (S)-3-(1-((1-Methyl-1H-imidazol-2-yl)methyl)pyrrolidin-3-yl)-1-(3-methyl-[1,1′-biphenyl]-4-yl)-1,3-dihydro-2H-imidazo[4,5-b]pyridin-2-one] | 28200 | – |
| Cc1ccccc1-c1ccc(-n2c(=O)n([C@H]3CCN(Cc4nccn4C)C3)c3ncccc32)cc1 [Example 29, (S)-3-(1-((1-Methyl-1H-imidazol-2-yl)methyl)pyrrolidin-3-yl)-1-(2′-methyl-[1,1′-biphenyl]-4-yl)-1,3-dihydro-2H-imidazo[4,5-b]pyridin-2-one] | 2090 | – |
| Cc1cc(-c2ccccc2)ccc1-n1c(=O)n([C@@H]2CCN(Cc3nccn3C)C2)c2ncccc21 [Example 30, (R)-3-(1-((1-Methyl-1H-imidazol-2-yl)methyl)pyrrolidin-3-yl)-1-(3-methyl-[1,1′-biphenyl]-4-yl)-1,3-dihydro-2H-imidazo[4,5-b]pyridin-2-one] | 3480 | – |
| Cc1cccnc1CN1CC[C@H](n2c(=O)n(-c3ccc(-c4ccc(F)cc4)cc3)c3cccnc32)C1 [Example 31, (S)-1-(4′-Fluoro-[1,1′-biphenyl]-4-yl)-3-(1-((3-methylpyridin-2-yl)methyl)pyrrolidin-3-yl)-1,3-dihydro-2H-imidazo[4,5-b]pyridin-2-one] | 12400 | – |
| Cc1cccnc1CN1CC[C@H](n2c(=O)n(-c3ccc(-c4ccccc4C(F)(F)F)cc3)c3cccnc32)C1 [Example 33, (S)-3-(1-((3-Methylpyridin-2-yl)methyl)pyrrolidin-3-yl)-1-(2′-(trifluoromethyl)-[1,1′-biphenyl]-4-yl)-1,3-dihydro-2H-imidazo[4,5-b]pyridin-2-one] | – | 41 |
| Cc1cccnc1CN1CC[C@H](n2c(=O)n(-c3ccc(-c4ccc(C#N)cc4)cc3)c3cccnc32)C1 [Example 34, (S)-4′-(3-(1-((3-Methylpyridin-2-yl)methyl)pyrrolidin-3-yl)-2-oxo-2,3-dihydro-1H-imidazo[4,5-b]pyridin-1-yl)-[1,1′-biphenyl]-4-carbonitrile] | 5700 | – |
| Cc1cccnc1CN1CC[C@H](n2c(=O)n(-c3ccc(-c4ccc(OC(F)(F)F)cc4)cc3)c3cccnc32)C1 [Example 35, (S)-3-(1-((3-Methylpyridin-2-yl)methyl)pyrrolidin-3-yl)-1-(4′-(trifluoromethoxy)-[1,1′-biphenyl]-4-yl)-1,3-dihydro-2H-imidazo[4,5-b]pyridin-2-one] | 80500 | – |
| Cn1ccnc1CN1CC[C@H](n2c(=O)n(-c3ccc(-c4ccncc4)cc3)c3cccnc32)C1 [Example 36, (S)-3-(1-((1-Methyl-1H-imidazol-2-yl)methyl)pyrrolidin-3-yl)-1-(4-(pyridin-4-yl)phenyl)-1,3-dihydro-2H-imidazo[4,5-b]pyridin-2-one hydrochloride] | 1510 | – |
| COC(=O)c1ccc(-c2ccc(-n3c(=O)n([C@H]4CCN(Cc5nccn5C)C4)c4ncccc43)cc2)cc1 [Example 37, Methyl (S)-4′-(3-(1-((1-methyl-1H-imidazol-2-yl)methyl)pyrrolidin-3-yl)-2-oxo-2,3-dihydro-1H-imidazo[4,5-b]pyridin-1-yl)-[1,1′-biphenyl]-4-carboxylate] | 6280 | – |
| COC(=O)c1ccc(-c2ccc(-n3c(=O)n([C@@H]4CCN(Cc5nccn5C)C4)c4ncccc43)c(C)c2)cc1 [Example 38, Methyl (R)-3′-methyl-4′-(3-(1-((1-methyl-1H-imidazol-2-yl)methyl)pyrrolidin-3-yl)-2-oxo-2,3-dihydro-1H-imidazo[4,5-b]pyridin-1-yl)-[1,1′-biphenyl]-4-carboxylate] | 4630 | – |
| Cn1ccnc1CN1CC[C@H](n2c(=O)n(-c3ccc(-c4ccc(O)c(C(=O)O)c4)cc3)c3cccnc32)C1 [Example 42, (S)-4-Hydroxy-4′-(3-(1-((1-methyl-1H-imidazol-2-yl)methyl)pyrrolidin-3-yl)-2-oxo-2,3-dihydro-1H-imidazo[4,5-b]pyridin-1-yl)-[1,1′-biphenyl]-3-carboxylic acid] | 320 | – |
| Cn1ccnc1CN1CC[C@H](n2c(=O)n(-c3ccc(-c4ccc(C(=O)O)cc4O)cc3)c3cccnc32)C1 [Example 44, (S)-2-Hydroxy-4′-(3-(1-((1-methyl-1H-imidazol-2-yl)methyl)pyrrolidin-3-yl)-2-oxo-2,3-dihydro-1H-imidazo[4,5-b]pyridin-1-yl)-[1,1′-biphenyl]-4-carboxylic acid] | 970 | – |
| Cc1cc(-c2ccc(C(=O)O)cc2)ccc1-n1c(=O)n([C@@H]2CCN(Cc3nccn3C)C2)c2ncccc21 [Example 48, (R)-3′-Methyl-4′-(3-(1-((1-methyl-1H-imidazol-2-yl)methyl)pyrrolidin-3-yl)-2-oxo-2,3-dihydro-1H-imidazo[4,5-b]pyridin-1-yl)-[1,1′-biphenyl]-4-carboxylic acid] | 350 | – |
| Cc1cc(C(=O)O)ccc1-c1ccc(-n2c(=O)n([C@H]3CCN(Cc4ncc(C(=O)O)n4C)C3)c3ncccc32)cn1 [Example 50, (S)-2-((3-(1-(6-(4-Carboxy-2-methylphenyl)pyridin-3-yl)-2-oxo-1,2-dihydro-3H-imidazo[4,5-b]pyridin-3-yl)pyrrolidin-1-yl)methyl)-1-methyl-1H-imidazole-5-carboxylic acid] | 140 | – |
